Results as given in patent US20240041042A1, “1-(PYRIDYL)-5-AZINYLPYRAZOLE DERIVATIVES, AND THEIR USE FOR CONTROL OF UNDESIRED PLANT GROWTH” (Bayer Aktiengesellschaft, priority 2020, published 2024).
Like-named read-outs stand apart in the source and are kept apart here.

Assays:
Type in all cases: in vivo
[1] = system: Abutilon theophrasti (ABUTH); experiment: Pre-emergence herbicidal action against ABUTH; details: Dosage column 320 g/ha (title prints 3200 g/ha); scored visually after about 3 weeks; 100% = plants have died
In short: (§1)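 Read-out is visual percent damage relative to untreated pots, with 100% meaning dead plants and 0% meaning no difference, assessed roughly three weeks after treatment. Compounds were applied pre-emergence to the covering soil at up to 320 g/ha.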

[2] = system: Alopecurus myosuroides (ALOMY); experiment: Pre-emergence herbicidal action against ALOMY; details: scored visually after about 3 weeks, 100% = plants have died
In short: as §1

[3] = system: Amaranthus retroflexus (AMARE); experiment: Pre-emergence herbicidal action against AMARE; details: visual scoring after about 3 weeks vs untreated controls
In short: as §1

[4] = system: Avena fatua (AVEFA); experiment: Pre-emergence herbicidal action against AVEFA; details: 320 g/ha, visual scoring after about 3 weeks vs untreated controls
In short: as §1

[5] = system: Echinochloa crus-galli (ECHCG); experiment: Pre-emergence herbicidal action against ECHCG
In short: as §1

[6] = system: Lolium rigidum (LOLRI); experiment: Pre-emergence herbicidal action against LOLRI
In short: as §1

[7] = system: Matricaria inodora (MATIN); experiment: Pre-emergence herbicidal action against MATIN
In short: as §1

[8] = system: Pharbitis purpurea (PHBPU); experiment: Pre-emergence herbicidal action against PHBPU
In short: as §1

[9] = system: Polygonum convolvulus (POLCO); experiment: Pre-emergence herbicidal action against POLCO
In short: as §1

[10] = system: Setaria viridis (SETVI); experiment: Pre-emergence herbicidal action against SETVI
In short: as §1

[11] = system: Verconica persica (VERPE); experiment: Pre-emergence herbicidal action against VERPE; details: dosage 320 g/ha
In short: as §1

[12] = system: Viola tricolor (VIOTR); experiment: Pre-emergence herbicidal action against VIOTR
In short: as §1

[13] = system: Abutilon theophrasti (ABUTH); experiment: Post-emergence herbicidal action against ABUTH; details: visual rating about 3 weeks after treatment vs untreated controls (100% = plants have died, 0% = like control plants)
In short: (§2)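 Greenhouse plants sprayed at the one-leaf stage, 2–3 weeks after sowing, with WP or EC formulations plus 0.5% additive at 600 l/ha water. Activity rated visually after about 3 weeks versus untreated controls (100% = dead, 0% = like control), at 320 g/ha or lower.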

[14] = system: Alopecurus myosuroides (ALOMY); experiment: Post-emergence herbicidal action against ALOMY; details: visual rating about 3 weeks after treatment vs untreated controls (100% = plants have died, 0% = like control plants)
In short: as §2

[15] = system: Amaranthus retroflexus (AMARE); experiment: Post-emergence herbicidal action against AMARE
In short: as §2

[16] = system: Avena fatua (AVEFA); experiment: Post-emergence herbicidal action against AVEFA; details: 80 g/ha, visual rating about 3 weeks after treatment
In short: as §2

[17] = system: Echinochloa crus-galli (ECHCG); experiment: Post-emergence herbicidal action against ECHCG
In short: as §2

[18] = system: Matricaria inodora (MATIN); experiment: Post-emergence herbicidal action against MATIN
In short: as §2

[19] = system: Pharbitis purpurea (PHBPU); experiment: Post-emergence herbicidal action against PHBPU
In short: as §2

[20] = system: Polygonum convolvulus (POLCO); experiment: Post-emergence herbicidal action against POLCO; details: dosage 80 g/ha
In short: as §2

[21] = system: Setaria viridis (SETVI); experiment: Post-emergence herbicidal action against SETVI
In short: as §2

[22] = system: Verconica persica (VERPE); experiment: Post-emergence herbicidal action against VERPE
In short: as §2

[23] = system: Oryza sativa (ORYSA); details: crop plant compatibility
In short: (§3)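 Test crops were treated 2 to 3 weeks after sowing, once they reached one leaf, by spraying compound in water with 0.5% additive at 600 l/ha. Visual scoring compared them with untreated controls roughly 3 weeks on, and appendices a, b and c denote different doses.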

[24] = system: Zea mays (ZEAMX)
In short: as §3

[25] = system: Viola tricolor (VIOTR); experiment: Post-emergence herbicidal action against VIOTR; details: 320 g/ha
In short: as §2

[26] = 80 g/ha, effect in comparison to untreated controls

Row | Compound | Pre-emergence action against ABUTH [1] [%] | Pre-emergence action against ALOMY ([2]; 320 g/ha) [%] | Pre-emergence action against AMARE in % ([3]; 80 g/ha) [%] | Pre-emergence action against AMARE in % ([3]; 320 g/ha) [%] | Pre-emergence action against AVEFA in % [4] [%] | Pre-emergence action against ECHCG in % ([5]; dosage 80 g/ha) [%] | Pre-emergence action against ECHCG in % ([5]; dosage 320 g/ha) [%] | Pre-emergence action against MATIN in % ([7]; dosage 80 g/ha) [%] | Pre-emergence action against MATIN in % ([7]; dosage 320 g/ha) [%] | Pre-emergence action against PHBPU in % ([8]; dosage 80 g/ha) [%] | Pre-emergence action against PHBPU in % ([8]; dosage 320 g/ha) [%] | Pre-emergence action against POLCO in % ([9]; dosage 80 g/ha) [%] | Pre-emergence action against POLCO in % ([9]; dosage 320 g/ha) [%] | Pre-emergence action against SETVI in % ([10]; dosage 80 g/ha) [%] | Pre-emergence action against SETVI in % ([10]; dosage 320 g/ha) [%] | Pre-emergence action against VERPE in % [11] [%] | Pre-emergence action against VIOTR in % ([12]; 320 g/ha, Viola tricolor) [%] | Pre-emergence action against VIOTR in % ([12]; dosage 80 g/ha) [%] | Post-emergence action against ECHCG in % ([17]; dosage 80 g/ha) [%] | Post-emergence action against PHBPU in % ([19]; dosage 80 g/ha) [%] | further results
1 | O=C(O)COc1nn(-c2ccccn2)c(-c2cncc(F)c2)c1Cl [Example I-81] | 90 | 100 | 80 | 90 | 80 | 90 | 100 | 80 | 90 | 90 | 100 | 90 | 90 | 90 | 100 | 90 | 100 | 80 | 90 | 90 | Pre-emergence action against ALOMY ([2]; 80 g/ha): 80%; Pre-emergence action against LOLRI in % ([6]; dosage 80 g/ha): 90%; Pre-emergence action against LOLRI in % ([6]; dosage 320 g/ha): 100%; Post-emergence action against ABUTH in % ([13]; 80 g/ha): 80%; Post-emergence action against ALOMY in % ([14]; 80 g/ha): 90%; Post-emergence action against AMARE in % ([15]; 80 g/ha, visual rating about 3 weeks after treatment vs untreated controls (100% = plants have died, 0% = like control plants)): 90%; Post-emergence action against AVEFA in % [16]: 90%; Post-emergence action against MATIN in % ([18]; dosage 80 g/ha): 90%; Post-emergence action against POLCO in % [20]: 80%; Post-emergence action against SETVI in % ([21]; dosage 80 g/ha): 80%; Post-emergence action against VERPE in % ([22]; dosage 80 g/ha): 90%; Post-emergence action against ORYSA in % ([23]; 20 g/ha, effect vs untreated controls): 0%; Post-emergence action against ORYSA in % [23, 26]: 0%; Post-emergence action against ZEAMX in % (crop plant compatibility) ([24]; 20 g/ha, ZEAMX, effect in comparison to untreated controls): 0%; Post-emergence action against ZEAMX in % ([24]; crop plant compatibility, 80 g/ha, effect vs untreated controls): 0%
2 | O=C(O)COc1nn(-c2nc(F)ccc2F)c(-c2cncc(F)c2)c1Br [Example I-207] | 80 | 80 | 90 | 100 | 80 | 90 | 100 | 90 | 90 | 90 | 90 | 90 | 100 | 80 | 100 | 90 | 100 | 100 | 80 | 80 | Post-emergence action against ABUTH in % ([13]; 320 g/ha): 80%; Post-emergence action against ALOMY in % ([14]; 320 g/ha): 90%; Post-emergence action against AMARE in % ([15]; 320 g/ha, visual rating about 3 weeks after treatment): 80%; Post-emergence action against ECHCG in % ([17]; dosage 320 g/ha): 80%; Post-emergence action against MATIN in % ([18]; dosage 320 g/ha): 80%; Post-emergence action against PHBPU in % ([19]; dosage 320 g/ha): 90%; Post-emergence action against SETVI in % ([21]; dosage 80 g/ha): 90%; Post-emergence action against SETVI in % ([21]; dosage 320 g/ha): 90%; Post-emergence action against VERPE in % ([22]; 320 g/ha, VERPE): 90%; Post-emergence action against VERPE in % ([22]; dosage 80 g/ha): 80%; Post-emergence action against VIOTR in % [25]: 80%; Post-emergence action against ORYSA in % [23, 26]: 10%
